Experimental data published in US6906098B2, “Mixed steroidal 1,2,4,5-tetraoxane compounds and methods of making and using thereof” (priority 2002, dated 2005).
In brackets after ≈: the same amount, converted by molar mass. Several values for one entry are separate records, joined by “and”; a condition that tells them apart may be missing. Identical values can stand only once. Like-named read-outs stand apart in the source and are kept apart here.

Key:
[1] = tested on: Plasmodium falciparum chloroquine-susceptible strain D6; assay: In vitro antimalarial drug susceptibility assay (radiolabeled hypoxanthine incorporation), strain D6; assay type: cell-based; settings: for IC50: Plasmodium falciparum, D6, 66 h; for Strain D6 IC50: growth inhibition, chloroquine-susceptible strain D6, 66 h incubation
[2] = tested on: Plasmodium falciparum chloroquine-resistant strain W2; assay: microbe, parasite or virus in culture; assay type: cell-based; settings: for IC50: Plasmodium falciparum, W2, 66 h; for Strain W2 IC50: growth inhibition, chloroquine-resistant strain W2, 66 h incubation
[3] = tested on: D6 and W2 P. falciparum clones; assay type: cell-based, Plasmodium falciparum; settings: for Resistance Index: IC50 (W2)/IC50 (D6) ratio; for antimalarial activity in words: D6 and W2 clones, Table 2
[4] = tested on: Mycobacterium tuberculosis H37Rv (ATCC 27294); assay: Primary screen, Microplate Alamar Blue Assay (MABA), percent inhibition; assay type: cell-based; settings: primary screening at 6.25 μg/ml; for inhibition at 6.25 µg/mL: Mycobacterium tuberculosis
Procedure: (§1) The activity of the compounds of the present invention against Mycobacterium tuberculosis was determined using the following assays conducted by the National Institute of Allergy and Infectious Diseases (NIAID) supports a TB drug acquisition and screening program, the TAACF.
To determine the percent inhibition the following assay was conducted. Primary screening was conducted at 6.25 μg/ml (or the molar equivalent of highest molecular weight compound in a given series of congeners) against Mycobacterium tuberculosis H37Rv (ATCC 27294) in BACTEC 12B medium using the Microplate Alamar Blue Assay (MABA). See Collins, L. and S. G. Franzblau. 1997. Microplate alamar blue assay versus BACTEC 460 system for high-throughput screening of compounds against Mycobacterium tuberculosis and Mycobacterium avium. Antimicrob Agents Chemother 41:1004-9, which is herein incorporated by reference.
Minimum compound requirements: 1.0 mg.

M. tuberculosis H37Rv = assay: Minimum inhibitory concentration (MIC) in the MABA; assay type: cell-based, Mycobacterium tuberculosis
Procedure: as §1
2. Minimum Inhibitory Concentration (MIC)
The MIC is defined as the lowest concentration effecting a reduction in fluorescence of 90% relative to controls. Minimum compound requirements: 1.0 mg.

[5] = read-out: Strain D6 IC50, growth inhibition, chloroquine-susceptible strain D6, 66 h incubation
[6] = read-out: Strain W2 IC50, growth inhibition, chloroquine-resistant strain W2, 66 h incubation
[7] = Table 5, Alamar assay, read-out: % Inhib
[8] = Mycobacterium tuberculosis, H37RV, Table 5, Alamar assay, M. tuberculosis H37Rv, read-out: MIC
[9] = Table 5, Alamar assay, M. tuberculosis H37Rv
[10] = Table 3, H37Rv, read-out: Inhibition (%)
[11] = Mycobacterium tuberculosis, H37RV, Table 3, H37Rv, read-out: MIC

| Compound | Resistance Index [3] | inhibition at 6.25 µg/mL [4, 7] | MIC (M. tuberculosis H37Rv; [8]) | Strain D6 IC50 [1] | Strain W2 IC50 [2] | % Inhib ([4]; Table 5, Alamar assay) | MIC (M. tuberculosis H37Rv; [9]) | further results |
| --- | --- | --- | --- | --- | --- | --- | --- | --- |
| CC(=O)O[C@H]1CC2C(C3CC[C@H](C(C)CCC(=O)O)[C@]31C)[C@H](OC(C)=O)C[C@@H]1CC3(CC[C@]21C)OOC1(CCCCC1)OO3 (stereo partly drawn) [9b/1C15, 70α,12α-Diacetoxy-5β-cholan-24-oic acid-3-spiro-6′-(1′,2′,4′,5′-tetraoxacyclohexane)-3′-spirocyclohexane] | 0.63 | 33% | > 6.25 µg/mL | – | – | – | – | IC50 [1, 5]: 0.019 µg/mL (≈ 0.0306 µM); IC50 [2, 6]: 0.0119 µg/mL (≈ 0.0192 µM) |
| CCCNC(=O)CCC(C)[C@H]1CCC2C3C(C[C@H](OC(C)=O)[C@@]21C)[C@@]1(C)CCC2(C[C@H]1C[C@H]3OC(C)=O)OOC1(CCC(CC)CC1)OO2 (single isomer, unassigned) [32/1C43, N-(n-Propyl)-7α,12α-Diacetoxy-5β-cholan-24-amide-3-spiro-6′-(1′,2′,4′,5′-tetraoxacyclohexane)-3′-spiro-1″-((4″S or R)-ethyl)cyclohexane] | 1.36 | – | – | 0.0622 µg/mL | 0.08464 µg/mL | 71% | >6.25 µg/mL | antimalarial activity in words [3]: inactive |
| CC(=O)O[C@H]1CC2C(C3CC[C@H](C(C)CCC(=O)O)[C@]31C)[C@H](OC(C)=O)C[C@@H]1CC3(CC[C@]21C)OOC1(CCC(C)CC1)OO3 (stereo partly shown) [9g/1C17] | 0.64 | 21% | > 6.25 µg/mL | 0.00097 µg/mL | 0.00062 µg/mL | – | – | inhibition at 6.25 µg/mL [4, 10]: 21%; MIC (M. tuberculosis H37Rv; [11]): > 6.25 µg/mL and > 9.84 µM |
| CCCNC(=O)CCC(C)[C@H]1CCC2C3C(C[C@H](OC(C)=O)[C@@]21C)[C@@]1(C)CCC2(C[C@H]1C[C@H]3OC(C)=O)OOC1(CCC(C)CC1)OO2 (stereo partly drawn) [24/1C33, N-(n-Propyl)-7α,12α-diacetoxy-5β-cholan-24-amide-3-spiro-6′-(1′,2′,4′,5′-tetraoxacyclohexane)-3′-spiro-1″-((4″S)-methyl)cyclohexane] | 0.98 | – | – | 0.05741 µg/mL | 0.05611 µg/mL | 0% | >6.25 µg/mL | antimalarial activity in words [3]: inactive |
| CNC(=O)CCC(C)[C@H]1CCC2C3C(C[C@H](OC(C)=O)[C@@]21C)[C@@]1(C)CCC2(C[C@H]1C[C@H]3OC(C)=O)OOC1(CCC(c3ccccc3)CC1)OO2 (single isomer, unassigned) [Compound 1C51, N-Methyl-7α,12α-Diacetoxy-5β-cholan-24-amide-3-spiro-6′-(1′,2′,4′,5′-tetraoxacyclohexane)-3′-spiro-1″-((4″S or R)-phenyl)cyclohexane] | 0.85 | – | – | 0.06462 µg/mL | 0.05472 µg/mL | 61% | >6.25 µg/mL | Inhibition (%) ([4]; Table 3, H37Rv): 61%; MIC (M. tuberculosis H37Rv; Table 3, H37Rv): >6.25 µg/mL |
| COC(=O)CCC(C)[C@H]1CCC2C3C(C[C@H](OC(C)=O)[C@@]21C)[C@@]1(C)CCC2(C[C@H]1C[C@H]3OC(C)=O)OOC1(CCC(C)CC1)OO2 (mixture of isomers) [8h/1B08b, Methyl 7α,12α-diacetoxy-5β-cholan-24-oate-3-spiro-6′-(1′,2′,4′,5′-tetraoxacyclohexane)-3′-spiro-1″-((4″R)- and (4″S)-methyl)cyclohexane] | 0.53 | – | – | 0.01599 µg/mL | 0.00854 µg/mL | 38% | >6.25 µg/mL | – |
| CCC1CCC2(CC1)OOC1(CC[C@]3(C)C4C[C@H](OC(C)=O)[C@@]5(C)C(CC[C@@H]5C(C)CCC(=O)OC)C4[C@H](OC(C)=O)C[C@@H]3C1)OO2 (single isomer, unassigned) [8i/1B13a, Methyl 7α,12α-diacetoxy-5β-cholan-24-oate-3-spiro-6′-(1′,2′,4′,5′-tetraoxacyclohexane)-3′-spiro-1″-((4″R or S)- and (4″S or R)-ethyl)cyclohexane] | 2.10 | 62% | > 6.25 µg/mL | 0.00446 µg/mL | – | – | – | IC50 [2, 6]: 0.00939 µg/mL (≈ 0.0142 µM) |
| COC(=O)CCC(C)[C@H]1CCC2C3C(C[C@H](OC(C)=O)[C@@]21C)[C@@]1(C)CCC2(C[C@H]1C[C@H]3OC(C)=O)OOC1(CCC(C)CC1)OO2 (mixture of isomers) [8g/1B08a, Methyl 7α,12α-diacetoxy-5β-cholan-24-oate-3-spiro-6′-(1′,2′,4′,5′-tetraoxacyclohexane)-3′-spiro-1″-((4″R)- and (4″S)-methyl)cyclohexane] | 0.50 | 29% | > 6.25 µg/mL | 0.00648 µg/mL | 0.00327 µg/mL | – | – | inhibition at 6.25 µg/mL [4, 10]: 29%; MIC (M. tuberculosis H37Rv; [11]): > 6.25 µg/mL and > 9.63 µM |
| CCC1CCC2(CC1)OOC1(CC[C@]3(C)C4C[C@H](OC(C)=O)[C@@]5(C)C(CC[C@@H]5C(C)CCC(=O)OC)C4[C@H](OC(C)=O)C[C@@H]3C1)OO2 (single isomer, unassigned) [8j/1B13b, Methyl 7α,12α-diacetoxy-5β-cholan-24-oate-3-spiro-6′-(1′,2′,4′,5′-tetraoxacyclohexane)-3′-spiro-1″-((4″R or S)- and (4″S or R)-ethyl)cyclohexane] | 1.60 | – | – | 0.01173 µg/mL | 0.01876 µg/mL | 65% | >6.25 µg/mL | – |
| COC(=O)CCC(C)[C@H]1CCC2C3C(C[C@H](OC(C)=O)[C@@]21C)[C@@]1(C)CCC2(C[C@H]1C[C@H]3OC(C)=O)OOC1(CCC(c3ccccc3)CC1)OO2 (single isomer, unassigned) [Compound 1B14b, Methyl 7α,12α-diacetoxy-5β-cholan-24-oate-3-spiro-6′-(1′,2′,4′,5′-tetraoxacyclohexane)-3′-spiro-1″-((4″R or S)- and (4″S or R)-phenyl)cyclohexane] | 0.79 | – | – | 0.03176 µg/mL | 0.025 µg/mL | 46% | >6.25 µg/mL | Inhibition (%) ([4]; Table 3, H37Rv): 46%; MIC (M. tuberculosis H37Rv; Table 3, H37Rv): >6.25 µg/mL |
| Methyl 7α,12α-diacetoxy-5β-cholan-24-oate-3-spiro-6′-(1′,2′,4′,5′-tetraoxacyclohexane)-3′-spiro-1″-((4″R or S)- and (4″S or R)-ethoxycarbonyl)cyclohexane [Compound 1B12b] | 1.77 | – | – | 0.03101 µg/mL | 0.05492 µg/mL | – | – | – |
| CCCNC(=O)CCC(C)[C@H]1CCC2C3C(C[C@H](OC(C)=O)[C@@]21C)[C@@]1(C)CCC2(C[C@H]1C[C@H]3OC(C)=O)OOC1(CCCCC1C)OO2 (stereo partly drawn) [16/1C25, N-(n-Propyl)-7α,12α-diacetoxy-5β-cholan-24-amide-3-spiro-6′-(1′,2′,4′,5′-tetraoxacyclohexane)-3′-spiro-1″-(2″-methyl)cyclohexane] | 0.71 | 87% | > 6.25 µg/mL | – | – | – | – | IC50 [1, 5]: 0.00889 µg/mL (≈ 0.0132 µM); IC50 [2, 6]: 0.00628 µg/mL (≈ 0.00929 µM) |
| COC(=O)CCC(C)[C@H]1CCC2C3C(C[C@H](OC(C)=O)[C@@]21C)[C@@]1(C)CCC2(C[C@H]1C[C@H]3OC(C)=O)OOC1(CCC(C(C)(C)C)CC1)OO2 (single isomer, unassigned) [8k/1B09a, Methyl 7α,12α-diacetoxy-5β-cholan-24-oate-3-spiro-6′-(1′,2′,4′,5′-tetraoxacyclohexane)-3′-spiro-1″-(4″R or S)- and (4″S or R)-t-butyl)cyclohexane] | 0.49 | – | – | 0.07426 µg/mL | – | – | – | IC50 [2, 6]: 0.0364 µg/mL (≈ 0.0527 µM); % Inhib ([4]; Table 5, Alamar assay, listed as 8g 1B09a): 32%; MIC (M. tuberculosis H37Rv; Mycobacterium tuberculosis, H37RV, Table 5, Alamar assay, M. tuberculosis H37Rv): > 6.25 µg/mL |
| OC(c1cc(C(F)(F)F)nc2c(C(F)(F)F)cccc12)C1CCCCN1 (stereo not shown) [Mefloquine, reference compound] | – | – | – | – | – | – | – | IC50 [1, 5]: 0.0106 µg/mL (≈ 0.0281 µM) |
| CCN(CC)CCCC(C)Nc1ccnc2cc(Cl)ccc12 (stereo not shown) [Chloroquine, reference compound] | – | – | – | – | – | – | – | IC50 ([1]; read-out: Strain D6 IC50): 0.00371 µg/mL (≈ 0.0116 µM); IC50 ([2]; read-out: Strain W2 IC50): 0.0883 µg/mL (≈ 0.276 µM) |
| Methyl 7α,12α-diacetoxy-5β-cholan-24-oate-3-spiro-6′-(1′,2′,4′,5′-tetraoxacyclohexane)-3′-spiro-1″-((4″R or S)- and (4″S or R)-ethoxycarbonyl)cyclohexane [Compound 1B12a] | 1.87 | – | – | 0.00672 µg/mL | 0.01256 µg/mL | – | – | – |
